`CO[Si](CCC1CCC2OC2C1)(OC)OC` (configuration not stated) [2-(3,4-epoxycyclohexyl)ethyltrimethoxysilane] showed a flash point of 146.00 °C. Next, `CC(CCl)C[Si](C)(Cl)Cl` (configuration not stated) [3-Chloro-2-methylpropylmethyldichlorosilane]: 90.00 °C; `CO[Si](C)(CCCCl)OC` [3-Chloropropylmethyldimethoxysilane]: 45.00 °C; `ClCCC[Si](Cl)(Cl)Cl` [3-Chloropropyltrichlorosilane]: 84.00 °C.

Regarding `CO[Si](CCCOCC1CO1)(OC)OC` (configuration not stated) [3-Glycidoxypropyltrimethoxysilane], the flash point came out at 110.00 °C. Next, `C=C(C)C(=O)OCCC[Si](OC)(OC)OC` [3-Methacryloxypropyltrimethoxysilane]: 92.00 °C. As for `COCC(C)O[Si](C)(C)C` (configuration not stated) [(1-Methoxy-2-propoxy)trimethylsilane], the figure is 20.00 °C; as for `C=CC=CC[Si](C)(C)C` [(2,4-Pentadienyl)trimethylsilane], 18.00 °C; as for `C[Si](C)(C)OC1=CCCC1` [(Cyclopentenyloxy)trimethylsilane], 38.00 °C. Next, `CCN(CC)[Si](C)(C)C` [(Diethylamino)trimethylsilane]: 10.00 °C; `CC(C)N(C(C)C)[Si](C)(C)C` [(Diisopropylamino)trimethylsilane]: 28.00 °C. `CN(C)[SiH](C)C` [(N,N-Dimethylamino)dimethylsilane] yielded a flash point of -13.00 °C. Next, `CC[Si](CC)(CC)N(C)C` [(N,N-Dimethylamino)triethylsilane]: 26.00 °C. As for `CC(=O)OC[Si](C)(C)C` [Acetoxymethyltrimethylsilane], the figure is 20.00 °C; as for `C=CC[Si](C)(C)Cl` [Allyl Dimethylchlorosilane], 5.00 °C; as for `C=CC[Si](Cl)(Cl)Cl` [Allyltrichlorosilane], 31.00 °C. As for `C=CC[Si](OC)(OC)OC` [Allyltrimethoxysilane], the figure is 46.00 °C.

Compound `C=CC[Si](C)(C)C` [Allyltrimethylsilane] yielded a flash point of 7.00 °C. As for `C[Si](C)(C)C[Si](C)(C)C` [Bis(trimethylsilyl)methane], the figure is 12.00 °C. For the compound `C[Si](C)(C)CBr` [Bromomethyltrimethylsilane], the flash point was found to be 16.00 °C.

For `C[Si](C)(Cl)CCl` [Chloromethyldimethylchlorosilane], the flash point came to 22.00 °C. As for `CCO[Si](C)(C)CCl` [Chloromethyldimethylethoxysilane], the figure is 26.00 °C; as for `Cl[Si](Cl)(Cl)C1CCCC1` [Cyclopentyltrichlorosilane], 77.00 °C. In turn, `C[Si](C)(C)O[Si](C)(C)O[Si](C)(C)O[Si](C)(C)C` [Decamethyltetrasiloxane] came in with a flash point of 62.00 °C.

In turn, `CC[Si](Cl)(Cl)CC` [Dichlorodiethylsilane] yielded a flash point of 24.00 °C. As for `Cl[SiH2]Cl` [Dichlorosilane], the figure is -37.00 °C; as for `CCO[Si](CC)(CC)OCC` [Diethyldiethoxysilane], 43.00 °C.

The compound `CC[Si](C)(Cl)CC` [Diethylmethylchlorosilane] came in with a flash point of 15.00 °C.

`CC(=O)O[Si](C)(C)OC(C)=O` [Dimethyldiacetoxysilane] registered a flash point of 37.00 °C. As for `c1ccc([SiH2]c2ccccc2)cc1` [Diphenylsilane], the figure is 98.00 °C; as for `C[Si]1(C)O[Si](C)(C)O[Si](C)(C)O[Si](C)(C)O[Si](C)(C)O[Si](C)(C)O1` [Dodecamethylcyclohexasiloxane], 93.00 °C; as for `CC[SiH3]` [Ethylsilane], -60.00 °C. As for `CC[Si](OC)(OC)OC` [Ethyltrimethoxysilane], the figure is 27.00 °C; as for `CCO[SiH2]CCCN` [Gamma-aminopropylethoxysilane], 96.11 °C.

Turning to `C[Si](C)(C)O[Si](C)(C)O[Si](C)(C)O[Si](C)(C)O[Si](C)(C)O[Si](C)(C)O[Si](C)(C)C` [Hexadecamethylheptasiloxane], the flash point was 133.00 °C. As for `CC[Si](CC)(CC)O[Si](CC)(CC)CC` [Hexaethyldisiloxane], the figure is 76.00 °C; as for `C[Si](C)(C)O[Si](C)(C)C` [Hexamethyldisiloxane], -3.00 °C; as for `C[Si](C)(C)S[Si](C)(C)C` [Hexamethyldisilthiane], 26.00 °C.

As for `CCCCCC[SiH](Cl)Cl` [Hexyldichlorosilane], the flash point was determined as 64.00 °C. Next, `CCCCCC[SiH3]` [Hexylsilane]: 12.00 °C; `C[Si](C)(C)I` [Iodotrimethylsilane]: 15.00 °C. As to `CO[Si](CC(C)C)(OC)OC` [Isobutyltrimethoxysilane], the flash point turned out to be 42.00 °C.

Compound `CO[Si](C)(C)C` [Methoxytrimethylsilane] registered a flash point of -30.00 °C. As for `CC(=O)O[Si](C)(OC(C)=O)OC(C)=O` [Methyltriacetoxysilane], the figure is 85.00 °C. As for `C[Si](Cl)(Cl)Cl` [Methyltrichlorosilane], the figure is 3.00 °C.

`C[Si](C)(C)N1CCOCC1` [N-(Trimethylsilyl)morpholine] yielded a flash point of 27.00 °C. As for `C[Si](C)(C)O[Si](C)(C)O[Si](C)(C)O[Si](C)(C)O[Si](C)(C)O[Si](C)(C)O[Si](C)(C)O[Si](C)(C)C` [Octadecamethyloctasiloxane], the figure is 144.00 °C. Next, `C[Si]1(C)N[Si](C)(C)N[Si](C)(C)N[Si](C)(C)N1` [Octamethylcyclotetrasilazane]: 66.00 °C; `C[Si]1(C)O[Si](C)(C)O[Si](C)(C)O[Si](C)(C)O1` [Octamethylcyclotetrasiloxane]: 57.00 °C; `CCCCCCCC[Si](OCC)(OCC)OCC` [Octyltriethoxysilane]: 100.00 °C. As for `CO[Si](OC)(OC)c1ccccc1` [Phenyltrimethoxysilane], the figure is 85.00 °C; as for `CCO[Si](OCC)(OCC)OCC` [Tetraethoxysilane], 50.00 °C. Compound `O=C=N[Si](N=C=O)(N=C=O)N=C=O` [Tetraisocyanatosilane] returned a flash point of 50.00 °C. The compound `C[SiH](C)O[Si](O[SiH](C)C)(O[SiH](C)C)O[SiH](C)C` [Tetrakisdimethylsiloxysilane] registered a flash point of 67.00 °C. As for `C=C[Si](C=C)(C=C)C=C` [Tetravinylsilane], the figure is 18.00 °C; as for `CCC[Si](Cl)(CCC)CCC` [Tri-n-propylchlorosilane], 76.00 °C; as for `CCC[SiH](CCC)CCC` [Tri-n-propylsilane], 43.00 °C. Next, `N#CCCC[Si](Cl)(Cl)Cl` [Trichloro(3-cyanopropyl) Silane]: 92.00 °C; `Clc1ccc([Si](Cl)(Cl)Cl)cc1` [Trichloro(p-chlorophenyl)silane]: 123.90 °C; `CC[Si](Cl)(CC)CC` [Triethylchlorosilane]: 30.00 °C. Next, `CC[SiH](CC)CC` [Triethylsilane]: -3.00 °C; `C=CO[Si](C)(C)C` [Trimethyl(vinyloxy)silane]: -10.00 °C; `C=C(C)O[Si](C)(C)C` [Trimethyl[(1-methylethenyl)oxy]silane]: -1.00 °C. As to `C[Si](C)(C)Cl` [Trimethylchlorosilane], the flash point was -18.00 °C. As for `C[Si](C)(C)c1ccccc1` [Trimethylphenylsilane], the figure is 40.00 °C; as for `C[Si](C)(C)OC(=O)C(F)(F)F` [Trimethylsilyltrifluoroacetate], 0.00 °C. Regarding `c1ccc([SiH](c2ccccc2)c2ccccc2)cc1` [Triphenylsilane], the flash point was determined as 143.20 °C. Next, `C[Si](C)(C)[SiH]([Si](C)(C)C)[Si](C)(C)C` [Tris(trimethylsilyl)silane]: 55.00 °C. The compound `[SiH3][SiH2][SiH3]` [Trisilane] yielded a flash point of 0.00 °C.

As for `C=C[Si](C)(C)OCC` [Vinyldimethylethoxysilane], the flash point came to 4.00 °C. Next, `C=C[Si](Cl)(Cl)Cl` [Vinyltrichlorosilane]: 21.00 °C; `C=C[Si](OC)(OC)OC` [Vinyltrimethoxysilane]: 23.00 °C; `CCCC[Si](C)(Cl)Cl` [n-Butylmethyldichlorosilane]: 30.00 °C. Next, `CCCCCCCCCCCC[Si](C)(Cl)Cl` [n-Dodecylmethyldichlorosilane]: 143.00 °C; `CCCCCCC[Si](C)(Cl)Cl` [n-Heptylmethyldichlorosilane]: 66.00 °C; `CCCCCCC[Si](Cl)(Cl)Cl` [n-Heptyltrichlorosilane]: 64.00 °C. Next, `CCCCCC[Si](C)(Cl)Cl` [n-Hexylmethyldichlorosilane]: 85.00 °C. In the case of `CCCCCC[Si](Cl)(Cl)Cl` [n-Hexyltrichlorosilane], the flash point came to 85.00 °C.

Compound `CCCCCCCCCCCCCCCCCC[Si](Cl)(Cl)Cl` [n-Octadecyltrichlorosilane] registered a flash point of 193.00 °C. The compound `CCCCCCCC[SiH3]` [n-Octylsilane] had a flash point of 36.00 °C. As for `CCC[Si](Cl)(Cl)Cl` [n-Propyltrichlorosilane], the figure is 37.00 °C; as for `C[SiH](C)C(C)(C)C` [t-Butyld imethyl silane], -22.00 °C.

The record behind these values is a flash point compilation (Sun et al. 2020).
